Data as given in ChEMBL document CHEMBL3621115, “Discovery of 6-phenylimidazo[2,1-b]thiazole derivatives as a new type of FLT3 inhibitors” (Bioorg Med Chem Lett, 2015).
Calls of active or inactive are those of the source. The rule behind the calls is not given here.

What was measured:
U-251 = experiment: Cytotoxicity against human U251 cells assessed as cell viability after 72 hrs by MTT assay; assay type: functional, cell-based; conditions: U-251, 72 h
SH-SY5Y = experiment: Cytotoxicity against human SH-SY5Y cells assessed as cell viability after 72 hrs by MTT assay; assay type: functional, cell-based
[1] = target: BDNF/NT-3 growth factors receptor (Homo sapiens, UniProt Q16620); experiment: Inhibition of human recombinant TrkB
[2] = target: Ribosomal protein S6 kinase alpha-1 (Homo sapiens, UniProt Q15418); experiment: Inhibition of human recombinant Rsk1
Ribosomal protein S6 kinase alpha-1, sequence (Q15418 whole entry): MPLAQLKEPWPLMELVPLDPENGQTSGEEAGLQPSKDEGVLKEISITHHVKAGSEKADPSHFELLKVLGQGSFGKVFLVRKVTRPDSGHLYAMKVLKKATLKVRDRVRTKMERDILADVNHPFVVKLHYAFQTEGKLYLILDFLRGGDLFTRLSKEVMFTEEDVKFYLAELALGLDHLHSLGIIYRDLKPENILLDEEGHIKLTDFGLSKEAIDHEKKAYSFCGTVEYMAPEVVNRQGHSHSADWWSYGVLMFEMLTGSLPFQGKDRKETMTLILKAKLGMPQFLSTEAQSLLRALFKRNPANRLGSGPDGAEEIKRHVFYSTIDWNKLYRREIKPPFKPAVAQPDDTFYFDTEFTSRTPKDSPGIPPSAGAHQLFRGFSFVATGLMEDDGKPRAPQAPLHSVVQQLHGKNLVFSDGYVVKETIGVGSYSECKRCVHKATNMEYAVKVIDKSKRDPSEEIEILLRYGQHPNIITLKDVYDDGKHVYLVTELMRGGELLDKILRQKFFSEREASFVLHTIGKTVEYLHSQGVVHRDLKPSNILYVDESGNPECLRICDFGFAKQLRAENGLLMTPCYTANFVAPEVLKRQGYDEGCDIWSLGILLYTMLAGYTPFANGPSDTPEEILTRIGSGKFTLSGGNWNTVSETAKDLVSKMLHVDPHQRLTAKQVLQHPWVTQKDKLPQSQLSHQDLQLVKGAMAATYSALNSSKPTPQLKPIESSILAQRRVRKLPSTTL

[3] = target: Receptor-type tyrosine-protein kinase FLT3 (Homo sapiens) (UniProt P36888); experiment: Inhibition of FLT3 phosphorylation in human MV4-11 cells after 6 hrs by Western blotting analysis; assay type: cell-based
[4] = target: Tyrosine-protein kinase Fyn (Homo sapiens, UniProt P06241); experiment: Inhibition of human recombinant Fyn
Tyrosine-protein kinase Fyn, sequence (P06241 whole entry): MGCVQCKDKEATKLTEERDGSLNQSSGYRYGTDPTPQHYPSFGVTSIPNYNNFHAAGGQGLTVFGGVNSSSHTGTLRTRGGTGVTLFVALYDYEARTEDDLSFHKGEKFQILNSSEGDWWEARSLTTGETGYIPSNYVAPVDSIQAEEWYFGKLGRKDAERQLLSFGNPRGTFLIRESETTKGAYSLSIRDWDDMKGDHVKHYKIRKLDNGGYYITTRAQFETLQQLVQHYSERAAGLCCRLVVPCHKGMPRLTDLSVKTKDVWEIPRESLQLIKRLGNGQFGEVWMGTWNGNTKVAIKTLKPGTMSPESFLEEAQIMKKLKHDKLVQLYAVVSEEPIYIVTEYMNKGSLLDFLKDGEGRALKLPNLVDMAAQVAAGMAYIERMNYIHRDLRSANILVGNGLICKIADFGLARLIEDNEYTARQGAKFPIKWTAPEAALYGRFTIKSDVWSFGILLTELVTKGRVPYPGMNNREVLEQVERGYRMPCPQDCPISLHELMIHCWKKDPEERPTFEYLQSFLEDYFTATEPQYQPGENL

[5] = target: Tyrosine-protein kinase BTK (Homo sapiens, UniProt Q06187); experiment: Inhibition of human recombinant BTK
Aurora kinase A = Aurora kinase A (Homo sapiens, UniProt O14965); experiment: Inhibition of human recombinant Aurora-A
SW480 = experiment: Cytotoxicity against human SW480 cells assessed as cell viability after 72 hrs by MTT assay; assay type: functional, cell-based; conditions: SW480, 72 h
[6] = target: Platelet-derived growth factor receptor alpha (Homo sapiens, UniProt P16234); experiment: Inhibition of human recombinant PDGFRalpha
[7] = target: Tyrosine-protein kinase ABL1 (Homo sapiens, UniProt P00519); experiment: Inhibition of human recombinant Abl
[8] = target: T1, Receptor-type tyrosine-protein kinase FLT3 (Homo sapiens, UniProt P36888); experiment: Inhibition of human recombinant Flt3
T1 sequence (P36888 whole entry): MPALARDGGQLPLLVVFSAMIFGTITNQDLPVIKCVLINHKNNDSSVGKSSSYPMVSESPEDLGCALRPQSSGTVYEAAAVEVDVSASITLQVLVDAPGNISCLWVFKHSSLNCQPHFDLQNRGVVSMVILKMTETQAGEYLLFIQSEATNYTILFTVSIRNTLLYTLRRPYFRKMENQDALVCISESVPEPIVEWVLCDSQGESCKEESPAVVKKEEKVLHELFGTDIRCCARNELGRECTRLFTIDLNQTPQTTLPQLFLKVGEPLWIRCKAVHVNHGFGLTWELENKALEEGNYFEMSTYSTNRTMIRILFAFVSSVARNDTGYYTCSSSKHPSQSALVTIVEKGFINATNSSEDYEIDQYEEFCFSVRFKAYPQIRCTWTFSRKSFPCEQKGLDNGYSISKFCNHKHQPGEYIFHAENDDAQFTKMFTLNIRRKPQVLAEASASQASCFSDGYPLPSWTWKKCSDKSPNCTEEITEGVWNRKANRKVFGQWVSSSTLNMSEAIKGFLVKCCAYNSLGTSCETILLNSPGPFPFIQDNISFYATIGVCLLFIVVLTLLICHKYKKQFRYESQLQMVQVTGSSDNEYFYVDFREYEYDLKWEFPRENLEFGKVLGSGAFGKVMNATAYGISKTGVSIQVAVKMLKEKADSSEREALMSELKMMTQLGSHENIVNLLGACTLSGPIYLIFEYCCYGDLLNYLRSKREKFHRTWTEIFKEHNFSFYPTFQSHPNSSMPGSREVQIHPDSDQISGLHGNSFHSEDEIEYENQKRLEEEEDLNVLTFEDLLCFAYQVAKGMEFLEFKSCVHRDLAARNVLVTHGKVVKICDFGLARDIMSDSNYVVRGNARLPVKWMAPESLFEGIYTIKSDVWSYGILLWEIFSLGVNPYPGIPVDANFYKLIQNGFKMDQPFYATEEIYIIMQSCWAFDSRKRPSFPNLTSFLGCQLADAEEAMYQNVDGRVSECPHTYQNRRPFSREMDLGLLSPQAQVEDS

[9] = target: Platelet-derived growth factor receptor beta (Homo sapiens, UniProt P09619); experiment: Inhibition of human recombinant PDGFRbeta
[10] = target: Receptor tyrosine-protein kinase erbB-4 (Homo sapiens, UniProt Q15303); experiment: Inhibition of human recombinant ErbB4
[11] = target: Cytoplasmic tyrosine-protein kinase BMX (Homo sapiens, UniProt P51813); experiment: Inhibition of human recombinant Bmx
MDA-MB-231 = experiment: Cytotoxicity against human MDA-MB-231 cells assessed as cell viability after 72 hrs by MTT assay; assay type: functional, cell-based; conditions: MDA-MB-231, 72 h
[12] = target: Tyrosine-protein kinase Lck (Homo sapiens, UniProt P06239); experiment: Inhibition of human recombinant Lck
[13] = target: Cyclin-dependent kinase 2 (Homo sapiens, UniProt P24941); experiment: Inhibition of human recombinant CDK2
[14] = target: Serine/threonine-protein kinase pim-1 (Homo sapiens, UniProt P11309); experiment: Inhibition of human recombinant Pim1
Serine/threonine-protein kinase pim-1, sequence (P11309 whole entry): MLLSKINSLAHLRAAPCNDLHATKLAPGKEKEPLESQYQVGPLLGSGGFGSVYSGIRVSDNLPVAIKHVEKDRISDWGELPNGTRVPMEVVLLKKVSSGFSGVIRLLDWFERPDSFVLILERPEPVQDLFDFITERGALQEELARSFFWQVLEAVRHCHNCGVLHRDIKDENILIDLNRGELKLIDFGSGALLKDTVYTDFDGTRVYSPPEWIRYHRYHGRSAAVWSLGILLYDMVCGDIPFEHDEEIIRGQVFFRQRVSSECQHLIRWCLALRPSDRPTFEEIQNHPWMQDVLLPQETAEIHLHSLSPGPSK

[15] = Cytotoxicity against human OCI-LY19 cells assessed as cell viability after 72 hrs by MTT assay; assay type: functional, cell-based; conditions: OCI-LY19, 72 h
[16] = target: Receptor-type tyrosine-protein kinase FLT3 (Homo sapiens) (UniProt P36888); experiment: Inhibition of FLT3 in human MV4-11 cells assessed as down regulation of ERK1/2 phosphorylation at >0.001 uM after 6 hrs by Western blotting analysis; assay type: cell-based
[17] = target: Tyrosine-protein kinase JAK3 (Homo sapiens, UniProt P52333); experiment: Inhibition of human recombinant JAK3
Tyrosine-protein kinase JAK3, sequence (P52333 whole entry): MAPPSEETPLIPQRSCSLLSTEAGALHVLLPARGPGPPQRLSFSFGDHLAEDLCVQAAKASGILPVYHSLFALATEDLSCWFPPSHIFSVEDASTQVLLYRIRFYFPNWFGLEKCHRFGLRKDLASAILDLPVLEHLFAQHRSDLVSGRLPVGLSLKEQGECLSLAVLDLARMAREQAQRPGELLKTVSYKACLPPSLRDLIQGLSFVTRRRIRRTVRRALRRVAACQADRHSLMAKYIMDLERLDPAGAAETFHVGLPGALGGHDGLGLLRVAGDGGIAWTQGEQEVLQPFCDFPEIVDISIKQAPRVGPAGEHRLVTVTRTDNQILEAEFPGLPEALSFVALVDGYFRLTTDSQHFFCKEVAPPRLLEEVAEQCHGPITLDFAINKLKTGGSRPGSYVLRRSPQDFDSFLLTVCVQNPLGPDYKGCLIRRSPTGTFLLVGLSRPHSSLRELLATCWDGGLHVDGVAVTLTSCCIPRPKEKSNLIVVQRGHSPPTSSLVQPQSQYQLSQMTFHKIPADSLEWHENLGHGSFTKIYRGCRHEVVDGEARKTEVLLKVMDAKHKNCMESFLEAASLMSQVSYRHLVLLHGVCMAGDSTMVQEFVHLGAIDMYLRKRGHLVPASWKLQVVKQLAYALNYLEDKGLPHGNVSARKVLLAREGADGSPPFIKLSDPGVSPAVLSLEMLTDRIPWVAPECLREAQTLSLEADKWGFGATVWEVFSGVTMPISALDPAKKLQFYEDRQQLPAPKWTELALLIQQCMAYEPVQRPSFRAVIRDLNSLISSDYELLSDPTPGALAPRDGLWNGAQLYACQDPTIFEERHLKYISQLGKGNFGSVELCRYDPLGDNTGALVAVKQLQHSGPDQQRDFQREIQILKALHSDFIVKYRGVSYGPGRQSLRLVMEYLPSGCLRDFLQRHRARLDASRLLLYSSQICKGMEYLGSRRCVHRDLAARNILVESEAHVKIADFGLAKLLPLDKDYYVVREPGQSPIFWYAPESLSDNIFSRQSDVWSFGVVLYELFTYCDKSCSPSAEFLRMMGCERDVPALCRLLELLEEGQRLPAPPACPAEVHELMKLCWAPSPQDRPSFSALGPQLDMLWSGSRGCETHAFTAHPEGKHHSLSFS

[18] = target: Mitogen-activated protein kinase kinase kinase 9 (Homo sapiens, UniProt P80192); experiment: Inhibition of human recombinant MLK1
[19] = target: Mitogen-activated protein kinase 10 (Homo sapiens, UniProt P53779); experiment: Inhibition of human recombinant JNK3
[20] = target: Tyrosine-protein kinase Lyn (Homo sapiens, UniProt P07948); experiment: Inhibition of human recombinant Lyn
Tyrosine-protein kinase Lyn, sequence (P07948 whole entry): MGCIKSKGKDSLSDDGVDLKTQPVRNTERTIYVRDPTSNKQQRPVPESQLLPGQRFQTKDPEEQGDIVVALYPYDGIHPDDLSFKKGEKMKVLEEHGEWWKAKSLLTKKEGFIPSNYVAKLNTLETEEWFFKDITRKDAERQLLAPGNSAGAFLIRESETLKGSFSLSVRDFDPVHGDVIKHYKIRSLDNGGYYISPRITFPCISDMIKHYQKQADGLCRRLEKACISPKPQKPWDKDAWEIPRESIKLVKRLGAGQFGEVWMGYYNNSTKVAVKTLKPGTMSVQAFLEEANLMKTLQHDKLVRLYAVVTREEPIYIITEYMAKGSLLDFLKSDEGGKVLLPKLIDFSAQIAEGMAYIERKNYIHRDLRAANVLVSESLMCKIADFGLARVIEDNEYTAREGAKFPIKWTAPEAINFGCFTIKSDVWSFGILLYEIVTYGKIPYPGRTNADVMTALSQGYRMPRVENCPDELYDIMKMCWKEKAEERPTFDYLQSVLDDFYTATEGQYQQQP

[21] = target: Glycogen synthase kinase-3 beta (Homo sapiens, UniProt P49841); experiment: Inhibition of human recombinant GSK3beta
Aurora kinase B = Aurora kinase B (Homo sapiens, UniProt Q96GD4); experiment: Inhibition of human recombinant Aurora-B
Aurora kinase B, sequence (Q96GD4 whole entry): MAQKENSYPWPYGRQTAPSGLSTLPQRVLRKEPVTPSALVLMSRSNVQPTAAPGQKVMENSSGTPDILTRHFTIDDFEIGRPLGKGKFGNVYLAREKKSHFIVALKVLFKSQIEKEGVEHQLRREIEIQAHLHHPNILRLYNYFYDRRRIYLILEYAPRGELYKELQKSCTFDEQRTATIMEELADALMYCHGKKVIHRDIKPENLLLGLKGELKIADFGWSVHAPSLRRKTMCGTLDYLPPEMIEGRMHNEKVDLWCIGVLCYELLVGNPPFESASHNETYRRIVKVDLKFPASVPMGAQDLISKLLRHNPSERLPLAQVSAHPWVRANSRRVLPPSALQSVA

[22] = target: Fibroblast growth factor receptor 2 (Homo sapiens, UniProt P21802); experiment: Inhibition of human recombinant FGFR2
Fibroblast growth factor receptor 2, sequence (P21802 whole entry): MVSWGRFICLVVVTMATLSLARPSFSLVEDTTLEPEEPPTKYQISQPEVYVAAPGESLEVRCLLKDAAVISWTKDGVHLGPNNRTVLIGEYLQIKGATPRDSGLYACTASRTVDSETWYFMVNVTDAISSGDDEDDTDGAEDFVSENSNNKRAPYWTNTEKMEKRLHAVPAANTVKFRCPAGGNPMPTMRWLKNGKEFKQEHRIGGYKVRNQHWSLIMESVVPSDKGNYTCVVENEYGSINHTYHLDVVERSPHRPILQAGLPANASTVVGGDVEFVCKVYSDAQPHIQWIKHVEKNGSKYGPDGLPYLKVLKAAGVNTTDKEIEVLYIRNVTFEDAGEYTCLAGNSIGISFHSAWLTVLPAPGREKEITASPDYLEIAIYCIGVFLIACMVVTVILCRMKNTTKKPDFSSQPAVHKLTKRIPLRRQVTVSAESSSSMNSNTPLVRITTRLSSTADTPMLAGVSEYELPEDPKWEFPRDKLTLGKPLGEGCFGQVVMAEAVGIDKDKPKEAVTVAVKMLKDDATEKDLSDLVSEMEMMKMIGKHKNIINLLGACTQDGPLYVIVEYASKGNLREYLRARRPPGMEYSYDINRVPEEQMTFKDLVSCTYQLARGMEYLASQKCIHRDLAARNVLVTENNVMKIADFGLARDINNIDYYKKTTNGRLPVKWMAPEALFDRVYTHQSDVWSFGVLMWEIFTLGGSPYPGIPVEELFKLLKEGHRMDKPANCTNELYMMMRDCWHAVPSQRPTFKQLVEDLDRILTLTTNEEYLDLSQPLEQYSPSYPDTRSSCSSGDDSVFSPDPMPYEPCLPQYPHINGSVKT

[23] = target: Mast/stem cell growth factor receptor Kit (Homo sapiens, UniProt P10721); experiment: Inhibition of human recombinant ckit
A-375 = experiment: Cytotoxicity against human A375 cells assessed as cell viability after 72 hrs by MTT assay; assay type: functional, cell-based; conditions: A-375, 72 h
[24] = target: Serine/threonine-protein kinase PAK 4 (Homo sapiens, UniProt O96013); experiment: Inhibition of human recombinant PAK4
Serine/threonine-protein kinase PAK 4, sequence (O96013 whole entry): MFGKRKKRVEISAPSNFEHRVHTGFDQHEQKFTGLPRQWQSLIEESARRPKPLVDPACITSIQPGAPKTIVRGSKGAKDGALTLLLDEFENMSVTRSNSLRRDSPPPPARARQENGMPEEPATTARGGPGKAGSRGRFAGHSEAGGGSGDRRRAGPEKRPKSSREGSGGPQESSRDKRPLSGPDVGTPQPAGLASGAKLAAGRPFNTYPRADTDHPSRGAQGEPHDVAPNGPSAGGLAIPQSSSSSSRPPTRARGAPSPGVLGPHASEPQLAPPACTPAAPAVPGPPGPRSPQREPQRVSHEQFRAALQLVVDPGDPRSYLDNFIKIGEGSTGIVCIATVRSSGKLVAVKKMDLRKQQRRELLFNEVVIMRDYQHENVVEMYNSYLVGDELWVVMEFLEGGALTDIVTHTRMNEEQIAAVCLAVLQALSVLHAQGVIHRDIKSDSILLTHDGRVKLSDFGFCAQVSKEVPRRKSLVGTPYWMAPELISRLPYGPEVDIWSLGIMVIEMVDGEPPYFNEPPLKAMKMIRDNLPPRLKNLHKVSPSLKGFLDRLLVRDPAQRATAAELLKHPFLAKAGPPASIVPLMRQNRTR

[25] = Cytotoxicity against human UM-UC-3 cells assessed as cell viability after 72 hrs by MTT assay; assay type: functional, cell-based; conditions: UMUC3, 72 h
Raji = experiment: Cytotoxicity against human Raji cells assessed as cell viability after 72 hrs by MTT assay; assay type: functional, cell-based
[26] = target: Vascular endothelial growth factor receptor 3 (Homo sapiens, UniProt P35916); experiment: Inhibition of human recombinant Flt4
[27] = Cytotoxicity against human Calu6 cells assessed as cell viability after 72 hrs by MTT assay; assay type: functional, cell-based; conditions: Calu-6, 72 h

IC50 [1]: > 10 µM | IC50 [2]: > 10 µM | inhibition [3]: Dose-dependent effect | IC50 [4]: > 10 µM | IC50 [5]: > 10 µM | IC50 (Aurora kinase A): > 10 µM | IC50 [6]: 0.37 µM | IC50 [7]: > 10 µM | IC50 [8]: 0.022 µM | IC50 [9]: 1.98 µM | IC50 [10]: > 10 µM | IC50 [11]: > 10 µM | IC50 [12]: > 10 µM | IC50 [13]: > 10 µM | IC50 [14]: 4.04 µM | inhibition [16]: Active | IC50 [17]: > 10 µM | IC50 [18]: > 10 µM | IC50 [19]: > 10 µM | IC50 [20]: > 10 µM | IC50 [21]: > 10 µM | IC50 (Aurora kinase B): > 10 µM | IC50 [22]: > 10 µM | IC50 [23]: 0.294 µM | IC50 [24]: > 10 µM | IC50 [26]: 1.19 µM
Structure (SMILES): CN(C)CCCNC(=O)c1csc2nc(-c3ccc(NC(=O)Nc4cc(C(C)(C)C)on4)cc3)cn12
IC50 (U-251): > 10 µM | IC50 (SH-SY5Y): 3.3 µM | IC50 (SW480): 10 µM | IC50 (MDA-MB-231): 10 µM | IC50 [15]: 3.3 µM | IC50 (A-375): 10 µM | IC50 [25]: 10 µM | IC50 (Raji): > 10 µM | IC50 [27]: 10 µM
